Laboratory results published in US20210213176A1, “CHEMICAL VAPOR DEPOSITION OF POLYMER COATINGS FOR CONTROLLED DRUG RELEASE, ASSEMBLIES CONTAINING SAME, AND METHODS OF PRODUCTION AND USE THEREOF” (The Board of Regents for the Oklahoma Agricultural and …, priority 2020, published 2021).

Assays:
[1] = system: Human coronary artery smooth muscle cells (HCASMC); experiment: MTT cell metabolism assay on nanocoated devices; details: PDE31 coated, dose densities up to 100 μg/cm^2
[2] = system: human smooth muscle cells; details: 2.5 μM atorvastatin in medium (Dubuis et al., 2013); cited from earlier work
[3] = system: smooth muscle cells; details: atorvastatin concentration as low as 0.1 μM (Petersen et al., 2013; Baetta et al., 1997); cited from earlier work

Compound: CC(C)c1c(C(=O)Nc2ccccc2)c(-c2ccccc2)c(-c2ccc(F)cc2)n1CC[C@@H](O)C[C@@H](O)CC(=O)[O-].CC(C)c1c(C(=O)Nc2ccccc2)c(-c2ccccc2)c(-c2ccc(F)cc2)n1CC[C@@H](O)C[C@@H](O)CC(=O)[O-].[Ca+2] [atorvastatin, Atorvastatin calcium]
- MTT activity of HCASMC with atorvastatin release [1]: no significant difference
- viability of human smooth muscle cells [2]: does not suppress the viability
- growth of smooth muscle cells [3]: effective in suppressing the growth
